Source: paper PMC5218480 (PLoS ONE, 2017)

Tested on: MV-4-11 cells
Assay: Gene expression microarray analysis (Affymetrix PrimeView) and GSEA
Format: cell-based, human
Parameters: RFU PODN (11730768_x_at) / Fold change /veh PODN (11730768_x_at) / RFU LINC00158 (11744669_a_at) / Fold change /veh LINC00158 (11744669_a_at) / RFU DUSP10 (11751237_a_at) / Fold change /veh DUSP10 (11751237_a_at) / RFU ID3 (11757404_x_at) / Fold change /veh ID3 (11757404_x_at) / RFU PLEKHG5 (11737974_s_at) / Fold change /veh PLEKHG5 (11737974_s_at) / RFU LRRC4B (11730491_at) / Fold change /veh LRRC4B (11730491_at) / RFU GIMAP4 (11747438_a_at) / Fold change /veh GIMAP4 (11747438_a_at) / RFU KRT8 (11758183_x_at) / Fold change /veh KRT8 (11758183_x_at) / RFU CNN1 (11734310_a_at) / Fold change /veh CNN1 (11734310_a_at) / RFU VPS37D (11726825_at) / Fold change /veh VPS37D (11726825_at) / RFU C10orf10 (11716522_x_at) / Fold change /veh C10orf10 (11716522_x_at) / RFU KIR2DL2 /// KIR2DL4 /// KIR2DL5A /// KIR2DL5B /// KIR2DS1 /// KIR2DS2 /// KIR2DS3 /// KIR2DS4 /// KIR3DL3 /// KIR3DL3 /// KIR3DS1 (11738374_at) / Fold change /veh KIR2DL2 /// KIR2DL4 /// KIR2DL5A /// KIR2DL5B /// KIR2DS1 /// KIR2DS2 /// KIR2DS3 /// KIR2DS4 /// KIR3DL3 /// KIR3DL3 /// KIR3DS1 (11738374_at) / RFU C1QL1 (11718748_at) / Fold change /veh C1QL1 (11718748_at) / RFU TMPRSS4 (11747572_a_at) / Fold change /veh TMPRSS4 (11747572_a_at) / RFU HAMP (11756126_x_at) / Fold change /veh HAMP (11756126_x_at) / RFU RNFT2 (11725882_a_at) / Fold change /veh RNFT2 (11725882_a_at) / RFU NR4A2 (11747474_a_at) / Fold change /veh NR4A2 (11747474_a_at) / RFU ABCC12 (11746883_a_at) / Fold change /veh ABCC12 (11746883_a_at) / RFU TMEM136 (11760407_x_at) / Fold change /veh TMEM136 (11760407_x_at) / RFU CLDN22 /// WWC2 (11732394_at) / Fold change /veh CLDN22 /// WWC2 (11732394_at) / RFU HLA-DPB1 (11760878_x_at) / Fold change /veh HLA-DPB1 (11760878_x_at) / RFU SPINT1 (11716480_a_at) / Fold change /veh SPINT1 (11716480_a_at) / RFU GAP43 (11754022_s_at) / Fold change /veh GAP43 (11754022_s_at) / RFU A4GNT (11735810_at) / Fold change /veh A4GNT (11735810_at) / RFU PRB3 (11715151_x_at) / Fold change /veh PRB3 (11715151_x_at) / RFU TUBB4B (11761932_at) / Fold change /veh TUBB4B (11761932_at) / RFU CAPN14 (11732068_a_at) / Fold change /veh CAPN14 (11732068_a_at) / RFU TMCC2 (11721928_a_at) / Fold change /veh TMCC2 (11721928_a_at) / RFU IRGQ (11745062_a_at) / Fold change /veh IRGQ (11745062_a_at) / RFU FAM174B (11720279_a_at) / Fold change /veh FAM174B (11720279_a_at) / RFU TMPRSS4 (11748680_a_at) / Fold change /veh TMPRSS4 (11748680_a_at) / RFU FAM212B (11763350_a_at) / Fold change /veh FAM212B (11763350_a_at) / RFU PLEKHG5 (11743358_a_at) / Fold change /veh PLEKHG5 (11743358_a_at) / RFU ZSCAN30 (11745921_a_at) / Fold change /veh ZSCAN30 (11745921_a_at) / RFU CMKLR1 (11741424_a_at) / Fold change /veh CMKLR1 (11741424_a_at) / RFU LOC101060620 /// MAPK8IP1 (11723275_at) / Fold change /veh LOC101060620 /// MAPK8IP1 (11723275_at) / RFU SPTSSB (11747773_x_at) / Fold change /veh SPTSSB (11747773_x_at) / RFU PRSS12 (11739890_at) / Fold change /veh PRSS12 (11739890_at) / RFU BIN1 (11741810_x_at) / Fold change /veh BIN1 (11741810_x_at) / RFU WNT11 (11732464_a_at) / Fold change /veh WNT11 (11732464_a_at) / RFU C10orf10 (11716521_a_at) / Fold change /veh C10orf10 (11716521_a_at) / RFU C5orf56 (11738089_at) / Fold change /veh C5orf56 (11738089_at) / RFU CYB561 (11721691_x_at) / Fold change /veh CYB561 (11721691_x_at) / RFU ANKRD19P (11752326_a_at) / Fold change /veh ANKRD19P (11752326_a_at) / RFU OR2T12 /// OR2T33 /// OR2T8 (11738714_s_at) / Fold change /veh OR2T12 /// OR2T33 /// OR2T8 (11738714_s_at) / RFU VCAN (11748164_a_at) / Fold change /veh VCAN (11748164_a_at) / RFU JSRP1 (11732532_at) / Fold change /veh JSRP1 (11732532_at) / RFU KRTAP10-11 (11738290_x_at) / Fold change /veh KRTAP10-11 (11738290_x_at) / RFU MYO3A (11730013_a_at) / Fold change /veh MYO3A (11730013_a_at) / RFU EBF3 (11725865_a_at) / Fold change /veh EBF3 (11725865_a_at) / RFU CAMK2N1 (11719241_x_at) / Fold change /veh CAMK2N1 (11719241_x_at) / RFU C5orf56 (11738088_a_at) / Fold change /veh C5orf56 (11738088_a_at) / RFU OLFML3 (11715873_a_at) / Fold change /veh OLFML3 (11715873_a_at) / RFU LOC100653217 /// NTM (11731650_a_at) / Fold change /veh LOC100653217 /// NTM (11731650_a_at) / RFU MAPK11 (11762145_a_at) / Fold change /veh MAPK11 (11762145_a_at) / RFU FIZ1 (11724087_x_at) / Fold change /veh FIZ1 (11724087_x_at) / RFU OASL (11726364_x_at) / Fold change /veh OASL (11726364_x_at) / RFU SOX15 (11748057_x_at) / Fold change /veh SOX15 (11748057_x_at) / RFU CD79A (11719716_a_at) / Fold change /veh CD79A (11719716_a_at) / RFU HIST1H1D (11736915_at) / Fold change /veh HIST1H1D (11736915_at) / RFU CASKIN2 (11723855_a_at) / Fold change /veh CASKIN2 (11723855_a_at) / RFU LOC730098 (11760151_x_at) / Fold change /veh LOC730098 (11760151_x_at) / RFU OR4N2 (11742367_at) / Fold change /veh OR4N2 (11742367_at) / RFU PRRT2 (11749266_a_at) / Fold change /veh PRRT2 (11749266_a_at) / RFU SNX32 (11753110_a_at) / Fold change /veh SNX32 (11753110_a_at) / RFU CDHR5 (11726645_a_at) / Fold change /veh CDHR5 (11726645_a_at) / RFU RCAN1 (11760418_a_at) / Fold change /veh RCAN1 (11760418_a_at) / RFU FAM167A (11723789_a_at) / Fold change /veh FAM167A (11723789_a_at) / RFU FAM26E (11764081_at) / Fold change /veh FAM26E (11764081_at) / RFU ISYNA1 (11749810_s_at) / Fold change /veh ISYNA1 (11749810_s_at) / RFU ACY1 (11761880_at) / Fold change /veh ACY1 (11761880_at) / RFU 11764098_at / Fold change /veh 11764098_at / RFU SAMD14 (11745864_x_at) / Fold change /veh SAMD14 (11745864_x_at) / RFU NPB (11741838_a_at) / Fold change /veh NPB (11741838_a_at) / RFU TMPRSS6 (11731388_a_at) / Fold change /veh TMPRSS6 (11731388_a_at) / RFU KRTAP10-2 (11738614_at) / Fold change /veh KRTAP10-2 (11738614_at) / RFU ARHGAP8 /// PRR5-ARHGAP8 (11727945_x_at) / Fold change /veh ARHGAP8 /// PRR5-ARHGAP8 (11727945_x_at) / RFU KRTAP5-7 /// NADSYN1 (11734609_at) / Fold change /veh KRTAP5-7 /// NADSYN1 (11734609_at) / RFU RASL12 (11751679_a_at) / Fold change /veh RASL12 (11751679_a_at) / RFU CDKN2B (11736163_a_at) / Fold change /veh CDKN2B (11736163_a_at) / RFU PRF1 (11729649_at) / Fold change /veh PRF1 (11729649_at) / RFU, ZNF638 /// ZNF638-IT1 / Fold change vs veh, ZNF638 /// ZNF638-IT1 / RFU, PANK3 / Fold change vs veh, PANK3 / RFU, SH3YL1 / Fold change vs veh, SH3YL1 / RFU, ZEB2 / Fold change vs veh, ZEB2 / RFU, NRIP1 / Fold change vs veh, NRIP1 / RFU, PTTG1IP / Fold change vs veh, PTTG1IP / RFU, CAPN2 / Fold change vs veh, CAPN2 / RFU, MED14 / Fold change vs veh, MED14 / RFU, SNORA58 / Fold change vs veh, SNORA58 / RFU, C1orf63 / Fold change vs veh, C1orf63 / RFU, LRRFIP1 / Fold change vs veh, LRRFIP1 / RFU, NDUFAF7 / Fold change vs veh, NDUFAF7 / RFU, SLC12A2 / Fold change vs veh, SLC12A2 / RFU, IBTK / Fold change vs veh, IBTK / RFU, ESF1 / Fold change vs veh, ESF1 / Fold change vs veh, TMEM50B / RFU, TAOK1 / Fold change vs veh, TAOK1 / RFU, ACBD3 / Fold change vs veh, ACBD3 / RFU, TMA16 / Fold change vs veh, TMA16 / RFU, RWDD3 / Fold change vs veh, RWDD3 / RFU, BCAT1 / Fold change vs veh, BCAT1 / RFU, EDEM3 / Fold change vs veh, EDEM3 / RFU, TMEM33 / Fold change vs veh, TMEM33 / RFU, WDR75 / Fold change vs veh, WDR75 / RFU, AHCTF1 / Fold change vs veh, AHCTF1 / RFU, TFRC / Fold change vs veh, TFRC / RFU, ZDHHC17 / Fold change vs veh, ZDHHC17 / RFU, NOM1 / Fold change vs veh, NOM1 / RFU, ARL8B / Fold change vs veh, ARL8B / RFU, ZBTB11 / Fold change vs veh, ZBTB11 / RFU, TAMM41 / Fold change vs veh, TAMM41 / RFU, KIAA1704 /// LOC100996395 / Fold change vs veh, KIAA1704 /// LOC100996395 / RFU, ING1 / Fold change vs veh, ING1 / RFU, TRMT61B / Fold change vs veh, TRMT61B / RFU, FUBP3 / Fold change vs veh, FUBP3 / RFU, TP53 / Fold change vs veh, TP53 / RFU, TNKS2 / Fold change vs veh, TNKS2 / RFU, ZFP14 / Fold change vs veh, ZFP14 / RFU, ACTR2 / Fold change vs veh, ACTR2 / RFU, PPP3R1 / Fold change vs veh, PPP3R1 / RFU, PIK3R1 / Fold change vs veh, PIK3R1 / RFU, HNRNPA1 / Fold change vs veh, HNRNPA1 / RFU, RNF170 / Fold change vs veh, RNF170 / RFU, ZNF28 / Fold change vs veh, ZNF28 / RFU, RNGTT / Fold change vs veh, RNGTT / RFU, OGT / Fold change vs veh, OGT / RFU, BRD1 / Fold change vs veh, BRD1 / RFU, MARS / Fold change vs veh, MARS / RFU, ZNF655 / Fold change vs veh, ZNF655 / RFU, FAHD1 / Fold change vs veh, FAHD1 / RFU, BDP1 / Fold change vs veh, BDP1 / RFU, LRRCC1 / Fold change vs veh, LRRCC1 / RFU, ARID1A / Fold change vs veh, ARID1A / RFU, ZNF146 / Fold change vs veh, ZNF146 / RFU, ZNF330 / Fold change vs veh, ZNF330 / RFU, GPN3 / Fold change vs veh, GPN3 / RFU, C9orf123 / Fold change vs veh, C9orf123 / RFU, N4BP2L2 / Fold change vs veh, N4BP2L2 / RFU, ARFIP1 / Fold change vs veh, ARFIP1 / RFU, FAM179B / Fold change vs veh, FAM179B / RFU, BCL10 / Fold change vs veh, BCL10 / RFU, UHRF1BP1L / Fold change vs veh, UHRF1BP1L / RFU, BET1 / Fold change vs veh, BET1 / RFU, CNOT2 / Fold change vs veh, CNOT2 / RFU, ZNF268 / Fold change vs veh, ZNF268 / Fold change vs veh, ZNF507 / RFU, DGCR2 / Fold change vs veh, DGCR2 / RFU, WDSUB1 / Fold change vs veh, WDSUB1 / Fold change vs veh, HSP90B1 /// MIR3652 / RFU, ADSS / Fold change vs veh, ADSS / RFU, GK / Fold change vs veh, GK / RFU, ZNF148 / Fold change vs veh, ZNF148 / RFU, TAF9 / Fold change vs veh, TAF9 / RFU, SLC1A5 / Fold change vs veh, SLC1A5 / RFU, SLMO2 / Fold change vs veh, SLMO2 / RFU, ABCC4 / Fold change vs veh, ABCC4 / RFU, LOC101060439 /// RAP1B / Fold change vs veh, LOC101060439 /// RAP1B / RFU, RFX7 / Fold change vs veh, RFX7 / RFU, GTPBP10 / Fold change vs veh, GTPBP10 / RFU, CNEP1R1 / Fold change vs veh, CNEP1R1 / RFU, BIVM-ERCC5 /// ERCC5 / Fold change vs veh, BIVM-ERCC5 /// ERCC5 / RFU, ILF3 / Fold change vs veh, ILF3 / RFU 11762660_at / Fold change /veh 11762660_at / RFU VCAN (11757783_s_at) / Fold change /veh VCAN (11757783_s_at) / RFU DDX43 (11728927_at) / Fold change /veh DDX43 (11728927_at) / RFU KRT8 (11758188_x_at) / Fold change /veh KRT8 (11758188_x_at) / RFU NKD1 (11759106_at) / Fold change /veh NKD1 (11759106_at) / RFU SRD5A1 (11742802_a_at) / Fold change /veh SRD5A1 (11742802_a_at) / RFU TPSAB1 /// TPSB2 (11721975_s_at) / Fold change /veh TPSAB1 /// TPSB2 (11721975_s_at) / RFU GSTM3 (11746129_a_at) / Fold change /veh GSTM3 (11746129_a_at) / RFU IL23R (11737362_x_at) / Fold change /veh IL23R (11737362_x_at) / RFU TMEM51 (11727254_a_at) / Fold change /veh TMEM51 (11727254_a_at) / RFU PIWIL2 (11732686_x_at) / Fold change /veh PIWIL2 (11732686_x_at) / RFU ORM1 (11744905_x_at) / Fold change /veh ORM1 (11744905_x_at) / RFU CCDC152 (11743942_at) / Fold change /veh CCDC152 (11743942_at) / RFU ECM1 (11717891_a_at) / Fold change /veh ECM1 (11717891_a_at) / RFU IL23R (11748794_a_at) / Fold change /veh IL23R (11748794_a_at) / RFU TNFAIP8L3 (11732012_x_at) / Fold change /veh TNFAIP8L3 (11732012_x_at) / RFU MBOAT4 (11741988_at) / Fold change /veh MBOAT4 (11741988_at) / RFU 11764193_at / Fold change /veh 11764193_at / RFU TMEM53 (11763286_at) / Fold change /veh TMEM53 (11763286_at) / RFU MAGEB2 (11727129_at) / Fold change /veh MAGEB2 (11727129_at) / RFU TMEM200A (11744735_a_at) / Fold change /veh TMEM200A (11744735_a_at) / RFU CCDC152 (11751479_a_at) / Fold change /veh CCDC152 (11751479_a_at) / RFU FAM211A (11726209_a_at) / Fold change /veh FAM211A (11726209_a_at) / RFU RGS16 (11746705_a_at) / Fold change /veh RGS16 (11746705_a_at) / RFU VCAN (11755009_s_at) / Fold change /veh VCAN (11755009_s_at) / RFU RHOB (11743442_s_at) / Fold change /veh RHOB (11743442_s_at) / RFU RGS16 (11720943_a_at) / Fold change /veh RGS16 (11720943_a_at) / RFU RGS16 (11720944_at) / Fold change /veh RGS16 (11720944_at) / RFU, VPS4B / Fold change vs veh, VPS4B / RFU, CREB1 / Fold change vs veh, CREB1 / RFU, DNAJC13 / Fold change vs veh, DNAJC13 / RFU, GNAQ / Fold change vs veh, GNAQ / RFU, CDK5R1 / Fold change vs veh, CDK5R1 / RFU, ZRANB3 / Fold change vs veh, ZRANB3 / RFU, CUL4A / Fold change vs veh, CUL4A / RFU, CCNY / Fold change vs veh, CCNY / RFU, UFL1 / Fold change vs veh, UFL1 / RFU, COG3 / Fold change vs veh, COG3 / RFU, DIAPH2 / Fold change vs veh, DIAPH2 / RFU, SKA2 / Fold change vs veh, SKA2 / RFU, AFF3 / Fold change vs veh, AFF3 / RFU, LMF1 / Fold change vs veh, LMF1 / RFU, IPO11 / Fold change vs veh, IPO11 / RFU, DFFB / Fold change vs veh, DFFB / RFU, FOXP1 / Fold change vs veh, FOXP1 / RFU, CARD8 / Fold change vs veh, CARD8 / RFU, STRN3 / Fold change vs veh, STRN3 / RFU, ADK / Fold change vs veh, ADK / RFU, RASSF2 / Fold change vs veh, RASSF2 / RFU, WIPF1 / Fold change vs veh, WIPF1 / RFU, LARP1B / Fold change vs veh, LARP1B / RFU, RASA1 / Fold change vs veh, RASA1 / RFU, RB1 / Fold change vs veh, RB1 / RFU, PPFIA1 / Fold change vs veh, PPFIA1 / RFU, MAT2A / Fold change vs veh, MAT2A / RFU, CCT5 / Fold change vs veh, CCT5 / RFU, WDR92 / Fold change vs veh, WDR92 / RFU, CUX1 / Fold change vs veh, CUX1 / RFU, TTC7A / Fold change vs veh, TTC7A / RFU, TMEM135 / Fold change vs veh, TMEM135 / RFU, DEPTOR / Fold change vs veh, DEPTOR / RFU, CPM / Fold change vs veh, CPM / RFU, DNAJB6 / Fold change vs veh, DNAJB6 / RFU, CACNA2D3 / Fold change vs veh, CACNA2D3 / RFU, DTX4 / Fold change vs veh, DTX4 / RFU, TFCP2 / Fold change vs veh, TFCP2 / RFU, GMCL1 /// GMCL1P1 / Fold change vs veh, GMCL1 /// GMCL1P1 / RFU, AEBP2 / Fold change vs veh, AEBP2 / RFU, SNHG1 /// SNORD22 /// SNORD25 /// SNORD26 /// SNORD27 /// SNORD28 /// SNORD29 /// SNORD31 / Fold change vs veh, SNHG1 /// SNORD22 /// SNORD25 /// SNORD26 /// SNORD27 /// SNORD28 /// SNORD29 /// SNORD31 / Fold change (Aza/veh), C12orf56 (ProbeSet 11735607_a_at) / Fold change (ACY-1035/veh), C12orf56 (ProbeSet 11735607_a_at) / Fold change (Aza/veh), FGFR1OP (ProbeSet 11751329_s_at) / Fold change (ACY-1035/veh), FGFR1OP (ProbeSet 11751329_s_at) / Fold change (Aza/veh), VPS36 (ProbeSet 11739960_a_at) / Fold change (ACY-1035/veh), VPS36 (ProbeSet 11739960_a_at) / RFU SYPL1 (11715823_x_at) / Fold change /veh SYPL1 (11715823_x_at) / RFU IGFBP7 (11715501_s_at) / Fold change /veh IGFBP7 (11715501_s_at) / RFU REEP3 (11722064_at) / Fold change /veh REEP3 (11722064_at) / RFU IGLL1 (11728026_x_at) / Fold change /veh IGLL1 (11728026_x_at): dose or concentration left out as unconfirmed
Conditions: ProbeSet 11754362_a_at; LIST D

SMILES: Nc1ccc(-c2cccs2)cc1NC(=O)c1ccc2c(c1)cc(C1CC1)n2CCN1CCOCC1 [ACY-1035]
- RFU, TTC7A: 150.96 RFU
